Data published in patent publication US20240247080A1, “GLP1/GIP/NPY2 RECEPTOR TRIPLE AGONISTS” (Boehringer Ingelheim International GmbH, priority 2022, published 2024).
Read-outs that look alike come from different tables or passages of the source. Starred links: 1 amine or outer side, 2 acyl side, 3 side chain; linkers in the order of their positions; H or OH if unused. Non-standard residues stand in square brackets, D forms with d. Groups on a side chain read outwards from the residue. *: point of attachment. C20 diacid = O=C(O)CCCCCCCCCCCCCCCCCCC(=O)*; C18 diacid = O=C(O)CCCCCCCCCCCCCCCCC(=O)*; γGlu = O=C(O)[C@H](CCC(=O)[*:2])N[*:1]; εLys = N[C@@H](CCCCN[*:1])C(=O)[*:2]; NMeR = CN[C@@H](CCCNC(=N)N)C(=O)O; AEEA = NCCOCCOCC(=O)O; Aib = CC(C)(N)C(=O)O

How the values were obtained:
Type in all cases: cell-based
Conditions in all cases: CreLuc reporter gene assay
[1] = target: T1, hGLP1R (Homo sapiens, UniProt P43220); test: hGLP1R CreLuc reporter gene assay in 0.5% and 100% plasma
T1 construct: expressed in transfected cells; host or cells: HEK-293 cells carrying a CRE-luciferase reporter gene
T1 sequence (P43220 24-463): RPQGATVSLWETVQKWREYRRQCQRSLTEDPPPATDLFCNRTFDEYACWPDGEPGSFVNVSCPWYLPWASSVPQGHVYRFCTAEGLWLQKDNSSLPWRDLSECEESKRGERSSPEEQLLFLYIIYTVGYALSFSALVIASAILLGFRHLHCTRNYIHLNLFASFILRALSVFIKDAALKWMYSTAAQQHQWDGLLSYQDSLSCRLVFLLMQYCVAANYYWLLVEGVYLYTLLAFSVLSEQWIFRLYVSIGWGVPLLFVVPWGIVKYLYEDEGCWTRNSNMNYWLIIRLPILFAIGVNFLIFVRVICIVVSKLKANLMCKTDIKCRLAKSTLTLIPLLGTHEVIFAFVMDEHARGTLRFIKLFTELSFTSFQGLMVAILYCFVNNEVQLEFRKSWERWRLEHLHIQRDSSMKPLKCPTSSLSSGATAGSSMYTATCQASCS
Summary of the method: (§1)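 HEK-293 cells co-expressing GLP-1 or NPY2 receptor and CHO cells expressing GIP receptor, each carrying a CRE-driven luciferase reporter, were stimulated with peptides for 4 hours at 37 °C. Luminescence was read after Bright-Glo addition. EC50 came from 8-point, four-decade curves fitted by variable-slope non-linear regression.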

[2] = target: T2, hGIPR (Homo sapiens, UniProt P48546); test: hGIPR CreLuc reporter gene assay in 0.5% and 100% plasma
T2 construct: expressed in transfected cells; host or cells: CHO cells carrying a CRE-luciferase reporter gene
T2 sequence (P48546 22-466): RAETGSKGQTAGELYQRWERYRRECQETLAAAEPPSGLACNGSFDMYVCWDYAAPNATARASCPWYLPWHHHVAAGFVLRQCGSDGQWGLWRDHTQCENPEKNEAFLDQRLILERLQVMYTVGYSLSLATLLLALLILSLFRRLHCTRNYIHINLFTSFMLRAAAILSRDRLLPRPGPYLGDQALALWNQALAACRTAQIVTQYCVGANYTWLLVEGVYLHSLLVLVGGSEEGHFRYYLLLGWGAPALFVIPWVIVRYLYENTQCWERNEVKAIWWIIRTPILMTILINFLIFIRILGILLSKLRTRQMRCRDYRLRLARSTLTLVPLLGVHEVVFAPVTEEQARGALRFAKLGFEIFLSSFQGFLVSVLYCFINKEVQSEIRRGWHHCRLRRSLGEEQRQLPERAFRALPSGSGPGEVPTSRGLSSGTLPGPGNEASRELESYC
Summary of the method: as §1

[3] = target: T3, hNPY2R (Homo sapiens, UniProt P49146); test: hNPY2R CreLuc reporter gene assay in 0.5% and 100% plasma
T3 construct: expressed in transfected cells; host or cells: HEK-293 cells carrying a CRE-luciferase reporter gene
T3 sequence (P49146 1-381): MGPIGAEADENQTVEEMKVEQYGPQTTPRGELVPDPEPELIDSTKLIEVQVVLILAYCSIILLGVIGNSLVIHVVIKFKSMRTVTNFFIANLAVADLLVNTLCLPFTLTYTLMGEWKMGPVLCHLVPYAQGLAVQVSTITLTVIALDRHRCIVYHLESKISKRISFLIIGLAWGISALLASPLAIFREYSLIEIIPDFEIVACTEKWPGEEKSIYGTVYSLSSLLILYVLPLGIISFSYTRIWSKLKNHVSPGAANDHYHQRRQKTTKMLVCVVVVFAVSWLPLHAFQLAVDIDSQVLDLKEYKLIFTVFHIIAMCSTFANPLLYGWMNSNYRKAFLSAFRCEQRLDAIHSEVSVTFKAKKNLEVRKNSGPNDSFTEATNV
Summary of the method: as §1

[4] = 0.5% human plasma, read-out: hGLP1R 0.5% hP
[5] = 0.5% human plasma, read-out: hGIPR 0.5% hP
[6] = 100% human plasma, read-out: hGIPR 100% hP
[7] = 100% human plasma, read-out: hNPY2R 100% hP
[8] = 0.5% human plasma, read-out: hNPY2R 0.5% hP

## CC[C@H](C)[C@H](NC(=O)[C@H](CC(C)C)NC(=O)[C@H](Cc1c[nH]c2ccccc12)NC(=O)[C@H](CCC(=O)O)NC(=O)[C@@H](NC(=O)[C@H](Cc1ccccc1)NC(=O)[C@H](C)NC(=O)C(C)(C)NC(=O)[C@H](CCC(N)=O)NC(=O)[C@H](C)NC(=O)[C@H](CCC(N)=O)NC(=O)[C@H](CCCCN)NC(=O)[C@H](CCC(=O)O)NC(=O)[C@H](CC(C)C)NC(=O)C(C)(C)NC(=O)[C@@H](NC(=O)[C@H](CO)NC(=O)[C@H](Cc1ccc(O)cc1)NC(=O)[C@H](CC(=O)O)NC(=O)[C@H](CO)NC(=O)[C@@H](NC(=O)[C@H](Cc1ccccc1)NC(=O)[C@@H](NC(=O)CNC(=O)[C@H](CCC(=O)O)NC(=O)C(C)(C)NC(=O)[C@@H](N)Cc1ccc(O)cc1)[C@@H](C)O)[C@@H](C)O)[C@@H](C)CC)C(C)C)C(=O)N[C@@H](CCCCNC(=O)[C@@H](N)CCCCNC(=O)CC[C@H](NC(=O)CC[C@H](NC(=O)CC[C@H](NC(=O)CC[C@H](NC(=O)CC[C@H](NC(=O)CC[C@H](NC(=O)CCCCCCCCCCCCCCCCCCC(=O)O)C(=O)O)C(=O)O)C(=O)O)C(=O)O)C(=O)O)C(=O)O)C(=O)NCC(=O)NCC(=O)N1CCC[C@H]1C(=O)N[C@@H](CO)C(=O)N[C@@H](CCC(=O)O)C(=O)N1CCC[C@H]1C(=O)N[C@@H](CCC(=O)O)C(=O)N[C@@H](CO)C(=O)N[C@@H](CC(C)C)C(=O)N[C@@H](CCCNC(=N)N)C(=O)N[C@@H](Cc1c[nH]cn1)C(=O)N[C@@H](Cc1ccc(O)cc1)C(=O)N[C@@H](Cc1ccc(O)cc1)C(=O)N[C@@H](CC(N)=O)C(=O)N[C@@H](Cc1c[nH]c2ccccc12)C(=O)N[C@@H](CC(C)C)C(=O)N[C@H](C(=O)N[C@@H](CCCNC(=N)N)C(=O)N[C@@H](CCC(N)=O)C(=O)N[C@@H](CCCNC(=N)N)C(=O)N[C@@H](Cc1ccc(O)cc1)C(N)=O)[C@@H](C)O [Compound 122, Y-Aib-E-G-T-F-T-S-D-Y-S-I-Aib-L-E-K-Q-A-Q-Aib-A-F-V-E-W-L-I-K(1,3)-GGPSEPESLRHYYNWLTRQRY-NH2.C20DA-gGlu-gGlu-gGlu-gGlu-gGlu-gGlu-eLys(1,2)]
[1]; [4]
  EC50: 0.22 nM
[2]; [5]
  EC50: 0.08 nM
[2]; [6]
  EC50: 1.53 nM
[3]; [7]
  EC50: 78.9 nM

## H-Y[Aib]EGTFTSDYSI[Aib]LEKQAQ[Aib]AFVEWLIK([εLys-γGlu-γGlu-γGlu-γGlu-γGlu-γGlu-C20 diacid])GGPSEGQSIRHYYNWLTRQRY-NH2 [Compound 134, Y-Aib-E-G-T-F-T-S-D-Y-S-I-Aib-L-E-K-Q-A-Q-Aib-A-F-V-E-W-L-I-K(1,3)-GGPSEGQSIRHYYNWLTRQRY-NH2.C20DA-gGlu-gGlu-gGlu-gGlu-gGlu-gGlu-eLys(1,2)]
[1]; [4]
  EC50: 0.1 nM
[2]; [5]
  EC50: 0.09 nM
[2]; [6]
  EC50: 0.83 nM
[3]; [8]
  EC50: 10.1 nM
[3]; [7]
  EC50: 39.9 nM

## H-Y[Aib]EGTFTSDYSI[Aib]LEKQAQ[Aib]AFVEWLIK([εLys-γGlu-γGlu-γGlu-γGlu-γGlu-γGlu-C20 diacid])GGPSEGASLRHYYNWLTRQ[NMeR]Y-NH2 [Compound 236, Y-Aib-E-G-T-F-T-S-D-Y-S-I-Aib-L-E-K-Q-A-Q-Aib-A-F-V-E-W-L-I-K(1,3)-G-G-P-S-E-G-A-S-L-R-H-Y-Y-N-W-L-T-R-Q-NMeR-Y-NH2.C20DA-gGlu-gGlu-gGlu-gGlu-gGlu-gGlu-eLys(1,2)]
[1]; [4]
  EC50: 0.26 nM
[2]; [5]
  EC50: 0.3 nM
[3]; [8]
  EC50: 31 nM

## H-Y[Aib]EGTFTSDYSI[Aib]LEKQAQ[Aib]AFVEWLIK([AEEA-AEEA-γGlu-γGlu-γGlu-γGlu-γGlu-C18 diacid])GGPSSPASLRHYYNWLTRQRY-NH2 [Compound 140, Y-Aib-E-G-T-F-T-S-D-Y-S-I-Aib-L-E-K-Q-A-Q-Aib-A-F-V-E-W-L-I-K(1,3)-GGPSSPASLRHYYNWLTRQRY-NH2.C18DA-gGlu-gGlu-gGlu-gGlu-gGlu-OEG-OEG(1,2)]
[1]; [4]
  EC50: 0.12 nM
[1]; 100% human plasma, read-out: hGLP1R 100% hP
  EC50: 3.11 nM
[2]; [5]
  EC50: 0.22 nM
[3]; [8]
  EC50: 12.4 nM
[3]; [7]
  EC50: 45.9 nM

## H-Y[Aib]EGTFTSDYSI[Aib]LEKQAQ[Aib]AFVQWLIK([εLys-γGlu-γGlu-γGlu-γGlu-γGlu-C20 diacid])GGPSEPASLRHYYNWLTRQRY-NH2 [Compound 169, Y-Aib-E-G-T-F-T-S-D-Y-S-I-Aib-L-E-K-Q-A-Q-Aib-A-F-V-Q-W-L-I-K(1,3)-GGPSEPASLRHYYNWLTRQRY-NH2.C20DA-gGlu-gGlu-gGlu-gGlu-gGlu-eLys(1,2)]
[1]; [4]
  EC50: 0.13 nM
[2]; [5]
  EC50: 0.26 nM
[3]; [8]
  EC50: 10.3 nM
[3]; [7]
  EC50: 50.3 nM

## H-Y[Aib]EGTFTSDYSI[Aib]LEKQAQ[Aib]EFVEWLIK([AEEA-AEEA-γGlu-γGlu-γGlu-γGlu-C20 diacid])GGPSSGASLRHYYNWLTRQRY-NH2 [Compound 205, Y-Aib-E-G-T-F-T-S-D-Y-S-I-Aib-L-E-K-Q-A-Q-Aib-E-F-V-E-W-L-I-K(1,3)-GGPSSGASLRHYYNWLTRQRY-NH2.C20DA-gGlu-gGlu-gGlu-gGlu-OEG-OEG(1,2)]
[1]; [4]
  EC50: 0.44 nM
[2]; [5]
  EC50: 0.33 nM
[3]; [8]
  EC50: 10.6 nM
